Experimental data: patent publication US9012608B2 (priority 2007, dated 2015)

Key:
[1] = mouse, in vivo
[2] = tested on: B. anthracis Sterne strain spores; design: species or system Bacillus anthracis; conditions: in vivo

In the case of `C[C@H]1c2cccc(O)c2C(=O)C2=C(O)[C@]3(O)C(=O)C(C(N)=O)=C(O)[C@@H](N(C)C)[C@@H]3[C@@H](O)[C@@H]21` [doxycycline], the tolerance [1] is reported as “not well tolerated”.

`CN(C)[C@@H]1C(O)=C(C(N)=O)C(=O)[C@@]2(O)C(O)=C3C(=O)c4c(O)cccc4[C@@](C)(O)[C@H]3C[C@@H]12` [tetracycline] gave a survival [2] of 60%.

With `O=C(O)c1cn(C2CC2)c2cc(N3CCNCC3)c(F)cc2c1=O` [ciprofloxacin] the “tolerance to selected dose” value [1] was “favorably tested”.
